Reference: patent publication US20010006667A1, “USE AND COMPOSITION OF AN ANTI-SEXUALLY TRANSMITTED DISEASES FORMULATION” (priority 1994, published 2001)

System: HIV LAV1 BRU retrovirus clone
Assay: Syncytia formation in HT4LacZ cells infected with an HIV viral suspension pre-mixed with test substance
Type: cell-based
Experimental: The formulations were prepared according to the description discussed above, except that the F-Po was prepared with about 2% polycarbophil, no N-9 and about a 1% concentration of Carbomer 934P, rather than 0.5%, and the difference (2%) was made up with additional water.
A viral blank was used as control, and AZT was used for a positive control. Each formulation was set up as an aqueous suspension of a particular concentration. 500 μl. aliquots of viral suspension were separately mixed with 50 ,μl. of each of the test solutions. After 30 minutes, 55 μl. of each of these mixtures were tested directly on HT4LacZ cells in a well also containing DEAE dextran. During the culturing period, the virus supplies the tat gene missing in HT4LacZ cells, leading to LacZ gene transactivation coding for β-galactosidase, indicated by a histochemical coloration. After 72 hours of culturing, infection is stopped by addition of a fixator for ten minutes. After two PBS washes, the colorant is added for ninety minutes. After syncytia (giant multi-nucleated cells, formed by many cells fusing together when infected with HIV) outbreak, the colorant is replaced with water. Observation is performed with an optical microscope, yielding the following results in Table 1: […]

Row | Compound | viral infection remaining, % of that exhibited by the HIV viral suspension (FIG. 1) (0.1 μg/ml) [%] | viral infection remaining, % of that exhibited by the HIV viral suspension (FIG. 1) (1 μg/ml) [%] | Avg. # Syncytia per well (final conc. 0.10 μg/ml) | Percent Reduction (of syncytia vs viral reference) (final conc. 0.10 μg/ml) [%] | Total # Syncytia (final conc. 0.10 μg/ml) | Avg. # Syncytia per well (final conc. 1.0 μg/ml) | Percent Reduction (of syncytia vs viral reference) (final conc. 1.0 μg/ml) [%] | Total # Syncytia (final conc. 1.0 μg/ml) | Avg. # Syncytia per well (final conc. 10^−5M) | Percent Reduction (of syncytia vs viral reference) (final conc. 10^−5M) [%] | Total # Syncytia (final conc. 10^−5M)
1 | nonoxynol-9 [N-9] | 72 | 36 | 11.5 | 28 | 46 | 5.75 | 64 | 23 |  |  | 
2 | Cc1cn([C@H]2C[C@H](N=[N+]=[N-])[C@@H](CO)O2)c(=O)[nH]c1=O [AZT] |  |  |  |  |  |  |  |  | 0 | 100 | 0
